Assay results: ChEMBL document CHEMBL1146775 (2004)
Activity calls are given as the source filed them.

Tests used:
[1] = molecular target: Muscarinic acetylcholine receptor M3 (Cavia porcellus) (UniProt Q8VH26); details: Ileum
[2] = Maximal rate of vascular endothelium-dependent relaxation at the concentration of 10E-5 M/L; 30-50%; details: Oryctolagus cuniculus
[3] = Maximal rate of vascular endothelium-dependent relaxation at the concentration of 10E-5 M/L; […]; details: Oryctolagus cuniculus
[4] = Maximal rate of vascular endothelium-dependent relaxation at the concentration of 10E-5 M/L; 0-10%; details: Oryctolagus cuniculus
[5] = Maximal rate of vascular endothelium-dependent relaxation at the concentration of 10E-5 M/L; - = no activity; details: Oryctolagus cuniculus
[6] = Maximal rate of vascular endothelium-dependent relaxation at the concentration of 10E-5 M/L; details: Oryctolagus cuniculus
Rattus norvegicus [7] = organism: Rattus norvegicus; assay: Rate of relaxation of endothelium intact rat aorta; type: functional
Rattus norvegicus [8] = organism: Rattus norvegicus; assay: Rate of relaxation of Indomethacin treated rat aorta; type: functional
Rattus norvegicus [9] = organism: Rattus norvegicus; assay: Rate of relaxation of L-NAME treated rat aorta; type: functional
Rattus norvegicus [10] = organism: Rattus norvegicus; assay: Rate of relaxation of endothelium denuded rat aorta; type: functional
Rattus norvegicus [11] = organism: Rattus norvegicus; assay: Rate of relaxation of Atropine treated rat aorta; type: functional
Oryctolagus cuniculus [12] = organism: Oryctolagus cuniculus; assay: Vascular relaxation of rabbit carotid model (high lipid diet) at 0.1 M/L concentration; type: functional
Oryctolagus cuniculus [13] = assay: Vascular relaxation of rabbit carotid model at 0.1 M/L concentration with 5 mg/kg PPVP; type: functional

Sequence of Muscarinic acetylcholine receptor M3 (Cavia porcellus) (Q8VH26 1-587): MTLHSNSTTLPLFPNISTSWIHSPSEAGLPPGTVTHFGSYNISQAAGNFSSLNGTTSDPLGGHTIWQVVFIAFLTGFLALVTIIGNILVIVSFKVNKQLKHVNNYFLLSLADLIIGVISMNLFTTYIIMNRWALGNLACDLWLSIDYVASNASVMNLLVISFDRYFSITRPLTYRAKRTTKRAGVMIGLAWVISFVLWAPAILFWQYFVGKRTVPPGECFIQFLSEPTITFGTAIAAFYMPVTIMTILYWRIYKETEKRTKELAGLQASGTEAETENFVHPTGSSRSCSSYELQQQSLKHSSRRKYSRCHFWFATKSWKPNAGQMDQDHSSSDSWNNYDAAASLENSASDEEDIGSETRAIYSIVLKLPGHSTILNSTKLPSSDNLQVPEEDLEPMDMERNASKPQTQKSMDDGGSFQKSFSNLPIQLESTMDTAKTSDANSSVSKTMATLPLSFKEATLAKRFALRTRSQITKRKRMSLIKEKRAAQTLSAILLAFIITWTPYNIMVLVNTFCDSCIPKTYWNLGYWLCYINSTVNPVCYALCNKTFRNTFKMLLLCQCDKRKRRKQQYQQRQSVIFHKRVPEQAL

CCOP(=O)(OCC)C(c1cc(OC)c(O)c(OC)c1)N1CCOCC1 (stereo not drawn)
Contraction [1]: inactive
Relaxation [2]: 50%

N#CC(c1ccc(F)cc1)N1CCOCC1 (stereo not drawn)
Contraction [1]: inactive
Relaxation [3]: 30%

CCOP(=O)(OCC)C(c1ccc(O)c(OC)c1)N1CCOCC1 (stereo not drawn)
Contraction [1]: inactive
Relaxation [3]: 30%

O=C(CN1CCOCC1)Nc1c(Cl)cccc1Cl
Contraction [1]: inactive
Relaxation [3]: 30%

N#CC(c1cccs1)N1CCOCC1 (stereo not drawn)
Contraction [1]: inactive
Relaxation [4]: 10%

Cc1cccc(C(C#N)N2CCOCC2)c1 (stereo not drawn)
Contraction [1]: inactive
Relaxation [3]: 30%

CNC(=O)CCN1CCCCC1
Contraction [1]: inactive
Relaxation [5]: inactive

COc1cc(C(C#N)N2CCN(C)CC2)cc(OC)c1OC (stereo not drawn)
Contraction [1]: inactive
Relaxation [6]: > 50%

CCOC(=O)CN1CCOCC1
Contraction [1]: inactive
Relaxation [4]: 10%

N#CC(c1c(F)cccc1Cl)N1CCOCC1 (stereo not drawn)
Contraction [1]: inactive
Relaxation [4]: 10%

COC(=O)CCCCN1CCOCC1
Contraction [1]: inactive
Relaxation [2]: 50%

CCOP(=O)(OCC)C(c1cc(OC)c(O)c(OC)c1)N1CCN(C)CC1 (stereo not drawn)
Contraction [1]: inactive
Relaxation [3]: 30%

CCOP(=O)(OCC)C(c1ccc(O)cc1)N1CCOCC1 (stereo not drawn)
Contraction [1]: inactive
Relaxation [4]: 10%

CN1CCN(CCC#N)CC1
Contraction [1]: inactive
Relaxation [5]: inactive

C#CCN1CCN(C)CC1
Contraction [1]: inactive
Relaxation [3]: 30%

COc1cc(C(C#N)N2CCOCC2)cc(OC)c1OC (stereo not drawn)
Contraction [1]: inactive
Relaxation [2]: 50%

N#CC(c1ccccc1Cl)N1CCOCC1 (stereo not drawn)
Contraction [1]: inactive
Relaxation [2]: 50%

Cc1ccccc1C(C#N)N1CCN(C)CC1 (stereo not drawn)
Contraction [1]: inactive
Relaxation [4]: 10%

CCOP(=O)(OCC)C(c1cc(Br)cc(Br)c1O)N1CCN(c2ccccn2)CC1 (stereo not drawn)
Contraction [1]: inactive
Relaxation [3]: 30%

CN1CCN(C(C#N)c2cc3c(cc2Cl)OCO3)CC1 (stereo not drawn)
Contraction [1]: inactive
Relaxation [4]: 10%

N#CC(c1ccc(Cl)c(F)c1)N1CCOCC1 (stereo not drawn)
Contraction [1]: inactive
Relaxation [5]: inactive

C=CCN1CCN(C)CC1
Relaxation [3]: 30%

COC(=O)CCN1CCN(C)CC1
Contraction [1]: inactive
Relaxation [5]: inactive

COC(=O)C1CC2C(=O)C=CC1N2Cc1ccccc1 (stereo not drawn)
Contraction [1]: inactive
Relaxation [4]: 10%

O/N=C1\CN2CCC1CC2
Contraction [1]: inactive
Relaxation [5]: inactive

CCOP(=O)(OCC)C(c1ccc(O)c(OC)c1[N+](=O)[O-])N1CCN(C)CC1 (stereo not drawn)
Contraction [1]: inactive
Relaxation [4]: 10%

CNC(=O)CCN1CCOCC1
Contraction [1]: inactive
Relaxation [5]: inactive

N#CC1(O)CN2CCC1CC2 (stereo not drawn)
Contraction [1]: inactive
Relaxation [5]: inactive

COc1cc(C(C#N)N2CCN(C)CC2)c([N+](=O)[O-])cc1OC (stereo not drawn)
Contraction [1]: inactive
Relaxation [6]: > 50%

CN1CCN(C(C#N)c2ccc3c(c2)OCO3)CC1 (stereo not drawn)
Contraction [1]: inactive
Relaxation [3]: 30%

CCOP(=O)(OCC)C(c1cc([N+](=O)[O-])ccc1O)N1CCOCC1 (stereo not drawn)
Contraction [1]: inactive
Relaxation [3]: 30%

CCOP(=O)(OCC)C(c1ccc(O)c(OC)c1)N1CCN(c2ccccn2)CC1.Cl (stereo not drawn)
Contraction [1]: inactive
Relaxation (Rattus norvegicus [7]): 81.4%
Relaxation [6]: > 50%
Relaxation (Rattus norvegicus [8]): 23.8%
Relaxation (Rattus norvegicus [9]): 28.8%
Relaxation (Rattus norvegicus [10]): 13.9%
Relaxation (Rattus norvegicus [11]): 85.7%

CN1CCN(Cc2nn[nH]n2)CC1
Contraction [1]: inactive
Relaxation [3]: 30%

CN1C2CC=C(C(N)=O)C1CC2 (stereo not drawn)
Contraction [1]: inactive
Relaxation [3]: 30%

COC(=O)CCN1CCCCC1
Contraction [1]: inactive
Relaxation [4]: 10%

CN1CCN(C(C#N)c2ccccc2F)CC1 (stereo not drawn)
Contraction [1]: inactive
Relaxation [2]: 50%

COC(=O)C1CN(Cc2ccccc2)CCN1Cc1ccccc1 (stereo not drawn)
Contraction [1]: inactive
Relaxation [3]: 30%

N#CC(c1ccccc1F)N1CCOCC1 (stereo not drawn)
Contraction [1]: inactive
Relaxation [3]: 30%

N#CC1CN(Cc2ccccc2)CCN1Cc1ccccc1 (stereo not drawn)
Contraction [1]: inactive
Relaxation [3]: 30%

N#CCN1CCOCC1
Contraction [1]: inactive
Relaxation [2]: 50%

CCOP(=O)(OCC)C(c1ccc(O)c(OC)c1)N1CCN(C)CC1 (stereo not drawn)
Contraction [1]: inactive
Relaxation [3]: 30%

N#CC(c1ccco1)N1CCOCC1 (stereo not drawn)
Contraction [1]: inactive
Relaxation [4]: 10%

N#CCCN1CCCCC1
Contraction [1]: inactive
Relaxation [5]: inactive

CCOC(=O)CN1CCN(C)CC1
Contraction [1]: inactive
Relaxation [3]: 30%

CN1CCN(CC(=O)Nc2c(Cl)cccc2Cl)CC1
Contraction [1]: inactive
Relaxation [4]: 10%

CCN(CC)CCC(=O)OC
Contraction [1]: inactive
Relaxation [5]: inactive

CCOP(=O)(OCC)C(c1ccc(O)cc1)N1CCN(c2ccccn2)CC1 (stereo not drawn)
Contraction [1]: inactive
Relaxation [4]: 10%

CN1C2CC=C(C#N)C1CC2 (stereo not drawn)
Contraction [1]: inactive
Relaxation [4]: 10%

N#CC(NCc1ccccc1)c1ccco1 (stereo not drawn)
Contraction [1]: inactive
Relaxation [4]: 10%

CCOP(=O)(OCC)C(c1cc(OC)c(O)c(OC)c1)N1CCN(c2ccccn2)CC1.Cl (stereo not drawn)
Contraction [1]: inactive
Relaxation (Rattus norvegicus [7]): 84%
Relaxation [6]: > 50%
Relaxation (Rattus norvegicus [8]): 14.2%
Relaxation (Rattus norvegicus [9]): 26.2%
Relaxation (Rattus norvegicus [10]): 5.7%
Relaxation (Rattus norvegicus [11]): 82.6%

CN1CCN(C(C#N)c2ccccc2Cl)CC1 (stereo not drawn)
Contraction [1]: inactive
Relaxation [4]: 10%

Cc1cccc(C(C#N)N2CCN(C)CC2)c1 (stereo not drawn)
Contraction [1]: inactive
Relaxation [4]: 10%

O=C(CCN1CCOCC1)c1ccc([N+](=O)[O-])cc1
Contraction [1]: inactive
Relaxation [3]: 30%

N#CC(c1ccc2c(c1)OCO2)N1CCOCC1 (stereo not drawn)
Contraction [1]: inactive
Relaxation [3]: 30%

CN1CCN(C(C#N)c2ccc(F)cc2)CC1 (stereo not drawn)
Contraction [1]: inactive
Relaxation [2]: 50%

NC(=O)CCN1CCOCC1
Contraction [1]: inactive
Relaxation [5]: inactive

N#CC(NCc1ccccc1)c1ccc2c(c1)OCO2 (stereo not drawn)
Contraction [1]: inactive
Relaxation [4]: 10%

N#CC(c1cccc(F)c1)N1CCOCC1 (stereo not drawn)
Contraction [1]: inactive
Relaxation [2]: 50%

CN1CCN(C(C#N)c2cccc(F)c2)CC1 (stereo not drawn)
Contraction [1]: inactive
Relaxation [2]: 50%

C#CCN1CCOCC1
Contraction [1]: inactive
Relaxation [5]: inactive

CN1CCN(CCC(N)=O)CC1
Contraction [1]: inactive
Relaxation [5]: inactive

CCOP(=O)(OCC)C(c1cc([N+](=O)[O-])ccc1O)N1CCN(C)CC1 (stereo not drawn)
Contraction [1]: inactive
Relaxation [3]: 30%

CCOP(=O)(OCC)C(c1cc(Cl)cc(Cl)c1O)N1CCN(c2ccccn2)CC1 (stereo not drawn)
Contraction [1]: inactive
Relaxation [6]: > 50%

N#CCCN1CCOCC1
Contraction [1]: inactive
Relaxation [5]: inactive

Cc1ccc(C(C#N)N2CCOCC2)cc1 (stereo not drawn)
Contraction [1]: inactive
Relaxation [3]: 30%

CN1CCN(C(C#N)c2cccs2)CC1 (stereo not drawn)
Contraction [1]: inactive
Relaxation [3]: 30%

CN1CCN(C(C#N)c2c(F)cccc2Cl)CC1 (stereo not drawn)
Contraction [1]: inactive
Relaxation [3]: 30%

N#CC1CC2C(=O)C=CC1N2Cc1ccccc1 (stereo not drawn)
Contraction [1]: inactive
Relaxation [5]: inactive

CC(=O)OCC[N+](C)(C)C [ACETYLCHOLINE]
Relaxation (Oryctolagus cuniculus [12]): 32.2%
Relaxation (Oryctolagus cuniculus [13]): 65.9%

CCOP(=O)(OCC)C(c1ccc(O)c(OC)c1[N+](=O)[O-])N1CCOCC1 (stereo not drawn)
Contraction [1]: inactive
Relaxation [4]: 10%

CN1CCN(C(C#N)c2ccco2)CC1 (stereo not drawn)
Contraction [1]: inactive
Relaxation [4]: 10%

CN1CCN(CC#N)CC1
Contraction [1]: inactive
Relaxation [2]: 50%

N#CCN1CCCCC1
Contraction [1]: inactive

Cc1ccccc1C(C#N)N1CCOCC1 (stereo not drawn)
Contraction [1]: inactive
Relaxation [3]: 30%

COC(=O)[C@@H]1C[C@@H](O)CN1
Contraction [1]: inactive
Relaxation [3]: 30%

CCOP(=O)(OCC)C(c1ccc(O)cc1)N1CCN(C)CC1 (stereo not drawn)
Contraction [1]: inactive
Relaxation [3]: 30%

COC(=O)CCCN1CCOCC1
Contraction [1]: inactive
Relaxation [5]: inactive

O=C1CN2CCC1CC2
Contraction [1]: inactive
Relaxation [5]: inactive

CN1CCN(C(C#N)c2ccc(Cl)c(F)c2)CC1 (stereo not drawn)
Contraction [1]: inactive
Relaxation [5]: inactive

Cc1ccc(C(C#N)N2CCN(C)CC2)cc1 (stereo not drawn)
Contraction [1]: inactive
Relaxation [3]: 30%
